{"source": "patent US20260217767A1", "about": "“NOVEL A4B7 THIOETHER PEPTIDE DIMER ANTAGONISTS” (Protagonist Therapeutics, Inc., priority 2014, published 2026)", "key": {"[1]": {"test": "Simulated Intestinal Fluid (SIF) Stability Assay", "type": "in vitro ADME", "conditions": "simulated gi fluid, porcine pancreatin, 37° C.; dimers, Table 7", "experimental": "Simulated Intestinal Fluid (SIF) Stability Assay\nStudies were carried out in simulated intestinal fluid (SIF) to evaluate intestinal stability of the peptide molecules of the instant invention. To prepare the SIF reagent, blank FASSIF was prepared by dissolving 0.348 g NaOH, 3.954 g sodium phosphate monobasic monohydrate and 6.186 g NaCl in a final volume of 1 liter water (final pH=6.5). To this solution, 24 g porcine pancreatin (Sigma catalog P7545) was added and stirred for 30 minutes (final pancreatin concentration is 2.4%). The solution was filtered through a cheese cloth and a No. 1 Whatman filter, and 10 ml aliquots were stored at −70° C. To run the reaction, a 10 ml aliquot was thawed at 37° C., and 125 μl aliquots were removed and mixed with an equal volume of blank FASSIF. The peptide stock solution (10 mM in 100% DMSO) was diluted 75-fold in blank FASSIF. A 50 μl aliquot of the diluted peptide was combined with 125 μl pancreatin (2.4%) and 125 μl blank FASSIF to yield final concentrations of 1% pancreatin and 22 μM peptide. The reactions were incubated at 37° C., and at various time points 50 μl aliquots were removed and added to 200 μl of quench solution containing 50% acetonitrile, 50% methanol, 5% formic acid, and 1 μg/ml internal standard. The quenched samples were centrifuged at 10,000 rpm for 10 minutes, and the supernatants were analyzed by LCMS/MS. The percent remaining at each time point was calculated based on the peak area response ratio of test to compound to internal standard. Half-lives were calculated by fitting to a first-order exponential decay equation using GraphPad. A small sampling of the results of these studies is provided and discussed herein and in the accompanying figures."}, "RPMI 8866 cells": {"target": "T1, RPMI 8866 cells (Homo sapiens, UniProt P13612+P26010)", "T1 sequence (P13612 34-1032)": "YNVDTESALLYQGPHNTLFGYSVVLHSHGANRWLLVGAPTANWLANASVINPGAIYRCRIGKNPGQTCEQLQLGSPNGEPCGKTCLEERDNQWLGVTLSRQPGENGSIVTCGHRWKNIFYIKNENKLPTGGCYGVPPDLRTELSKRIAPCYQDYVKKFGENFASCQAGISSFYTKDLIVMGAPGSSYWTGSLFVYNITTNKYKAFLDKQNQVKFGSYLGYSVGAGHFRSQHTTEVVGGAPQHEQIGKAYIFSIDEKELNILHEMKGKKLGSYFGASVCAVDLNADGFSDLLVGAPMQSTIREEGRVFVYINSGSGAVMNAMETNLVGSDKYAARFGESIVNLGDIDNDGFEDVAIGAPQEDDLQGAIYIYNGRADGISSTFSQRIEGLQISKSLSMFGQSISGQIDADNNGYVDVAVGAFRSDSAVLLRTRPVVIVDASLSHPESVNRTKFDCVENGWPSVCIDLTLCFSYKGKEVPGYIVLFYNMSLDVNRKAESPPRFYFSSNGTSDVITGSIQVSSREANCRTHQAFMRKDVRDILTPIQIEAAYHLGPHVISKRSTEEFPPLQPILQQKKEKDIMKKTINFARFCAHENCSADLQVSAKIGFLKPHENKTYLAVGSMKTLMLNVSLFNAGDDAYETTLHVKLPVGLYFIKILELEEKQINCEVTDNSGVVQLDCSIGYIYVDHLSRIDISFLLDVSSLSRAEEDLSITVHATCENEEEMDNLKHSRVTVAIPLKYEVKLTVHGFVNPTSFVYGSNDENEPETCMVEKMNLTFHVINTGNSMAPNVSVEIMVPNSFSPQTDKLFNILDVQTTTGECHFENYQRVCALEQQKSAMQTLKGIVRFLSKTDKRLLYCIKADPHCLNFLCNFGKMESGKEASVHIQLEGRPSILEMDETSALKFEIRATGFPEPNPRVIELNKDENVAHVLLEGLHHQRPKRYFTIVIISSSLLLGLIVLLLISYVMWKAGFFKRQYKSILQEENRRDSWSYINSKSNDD", "T1 sequence (P26010 20-798)": "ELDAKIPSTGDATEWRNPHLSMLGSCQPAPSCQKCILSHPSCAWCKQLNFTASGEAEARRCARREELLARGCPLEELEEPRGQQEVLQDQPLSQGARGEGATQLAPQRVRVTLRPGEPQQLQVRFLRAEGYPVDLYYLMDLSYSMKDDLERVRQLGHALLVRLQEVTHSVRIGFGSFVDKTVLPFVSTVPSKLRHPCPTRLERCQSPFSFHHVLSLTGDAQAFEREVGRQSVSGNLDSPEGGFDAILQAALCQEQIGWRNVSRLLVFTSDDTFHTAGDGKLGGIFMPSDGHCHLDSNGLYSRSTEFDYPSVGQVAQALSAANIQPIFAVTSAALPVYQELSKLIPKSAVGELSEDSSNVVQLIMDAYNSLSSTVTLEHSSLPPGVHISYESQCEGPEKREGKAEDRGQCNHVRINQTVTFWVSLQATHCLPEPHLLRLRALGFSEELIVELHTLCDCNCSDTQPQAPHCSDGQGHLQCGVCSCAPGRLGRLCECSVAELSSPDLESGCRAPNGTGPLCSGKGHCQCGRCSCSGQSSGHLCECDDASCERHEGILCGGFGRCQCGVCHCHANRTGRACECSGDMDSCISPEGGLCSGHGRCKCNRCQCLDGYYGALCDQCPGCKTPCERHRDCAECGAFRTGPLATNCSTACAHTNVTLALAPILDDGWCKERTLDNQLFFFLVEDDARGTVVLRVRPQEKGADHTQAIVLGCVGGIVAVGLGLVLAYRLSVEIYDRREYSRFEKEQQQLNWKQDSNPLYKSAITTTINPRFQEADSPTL", "test": "α4β7-MAdCAM Cell Adhesion Assay", "type": "cell-based", "conditions": "thioether peptide dimers, Table 7; read-out: Cell-Adhesion A4B7", "experimental": "α4β7-MAdCAM Cell Adhesion Assay\nRPMI 8866 cells (Sigma #95041316) were cultured in RPMI 1640 HEPES medium (Invitrogen #22400-089) supplemented with 10% serum (Fetal Bovine Serum, Invitrogen #16140-071), 1 mM sodium pyruvate (Invitrogen #11360-070), 2 mM L-glutamine (Invitrogen #25030-081) and Penicillin-Streptomycin (Invitrogen #15140-122) at 100 units of penicillin and 100 μg of streptomycin per ml. The cells were washed two times in DMEM medium (ATCC #30-2002) supplemented with 0.1% BSA, 10 mM HEPES pH 7 and 1 mM MnCl2. The cells were re-suspended in supplemented DMEM medium at a density of 4×10^6 cells/ml.\nA Nunc MaxiSorp plate was coated with rh MAdCAM-1/Fc Chimera (R&D #6065-MC) at 200 ng per well in 50 ul per well in 1×PBS and incubated at 4° C. overnight. The solution was then removed by shaking, blocked with 250 ul per well PBS containing 1% BSA, and incubated at 37° C. for 1 hr. The solution was removed by shaking. Peptides were diluted by serial dilution in a final volume of 50 ul per well (2× concentration). To each well, 50 ul of cells (200,000 cells) were added and the plate was incubated at 37° C., 5% CO2 for 30-45 min to allow cell adhesion. The wells were washed manually three times (100 ul per wash) with supplemented DMEM. After the final wash, 100 μl/well of supplemented DMEM and 10 ul/well of MTT reagent (ATTC cat #30-1010K) were added. The plate was incubated at 37° C., 5% CO2 for 2-3 hrs until a purple precipitate is visible. 100 ul of Detergent Reagent (ATTC cat #30-1010K) was added to each well. The plate was covered from the light, wrapped in Parafilm to prevent evaporation, and left overnight at room temperature in the dark. The plate was shaken for 5 min and the absorbance at 570 nm is measured. To calculate the dose response, the absorbance value of control wells not containing cells was subtracted from each test well."}}, "note": "Where a SMILES comes first, the peptide text is derived from it."}
{"molecule": "CC(C)C[C@@H]1NC(=O)[C@H]([C@@H](C)O)NC(=O)[C@H](CC(=O)O)NC(=O)[C@H](CO)NC(=O)[C@H](CCCNC(=N)N)N(C)C(=O)c2ccccc2CSC(C)(C)[C@@H](C(=O)N[C@@H](Cc2c[nH]c3ccccc23)C(=O)N[C@@H](Cc2ccc(O)cc2)C(=O)N(C)[C@@H](CCCCN)C(N)=O)NC1=O", "note": "[compound 153] (HELM PEPTIDE1{[meR].S.D.T.L.[Pen].W.Y.[meK].[am]}|CHEM1{[O=C(c1ccccc1C[*:2])[*:1]]}$PEPTIDE1,CHEM1,1:R1-1:R1|PEPTIDE1,CHEM1,6:R3-1:R2$$$V2.0)", "values": [{"measurement": "half-life", "setting": "[1]", "result": "> 3", "unit": "h"}]}
{"molecule": "CC(C)C[C@@H]1NC(=O)[C@H]([C@@H](C)O)NC(=O)[C@H](CC(=O)O)NC(=O)[C@H](CO)NC(=O)[C@H](CCCNC(=N)N)N(C)C(=O)c2ccccc2CSC(C)(C)[C@@H](C(=O)N[C@@H](Cc2c[nH]c3ccccc23)C(=O)N[C@H](CCC(=O)O)C(=O)N[C@@H](CC(C)C)C(=O)N[C@H](CCCCN)C(N)=O)NC1=O", "note": "[compound 190] (HELM PEPTIDE1{[meR].S.D.T.L.[Pen].W.[dE].L.[dK].[am]}|CHEM1{[O=C(c1ccccc1C[*:2])[*:1]]}$PEPTIDE1,CHEM1,1:R1-1:R1|PEPTIDE1,CHEM1,6:R3-1:R2$$$V2.0)", "values": [{"measurement": "IC50", "setting": "RPMI 8866 cells", "result": "< 25", "unit": "nM"}]}
{"molecule": "CC(C)C[C@@H]1NC(=O)[C@H]([C@@H](C)O)NC(=O)[C@H](CC(=O)O)NC(=O)[C@H](CO)NC(=O)[C@H](CCCNC(=N)N)N(C)C(=O)c2ccccc2CSC[C@@H](C(=O)N[C@@H](Cc2c[nH]c3ccccc23)C(=O)N[C@@H](CCC(=O)O)C(=O)N[C@H](CCCCN)C(N)=O)NC1=O", "note": "[compound 145] (HELM PEPTIDE1{[meR].S.D.T.L.C.W.E.[dK].[am]}|CHEM1{[O=C(c1ccccc1C[*:2])[*:1]]}$PEPTIDE1,CHEM1,1:R1-1:R1|PEPTIDE1,CHEM1,6:R3-1:R2$$$V2.0)", "values": [{"measurement": "IC50", "setting": "RPMI 8866 cells", "result": "25 to 100", "unit": "nM"}]}
{"molecule": "180 (RSDTLCXEK; not fully specified; CROSSLINK - N-term 2-Benzyl with a thioether bond between the N-term and the residue at position 6; MOD_RES 1 N-Methyl Arginine; SITE 7 aminoindan-2-carboxylic acid; SITE 8 D-Glu; SITE 9 D-Lys; SITE 9 C-term NH2) [compound 180]", "values": [{"measurement": "IC50", "setting": "RPMI 8866 cells", "result": "100 to 1000", "unit": "nM"}]}
{"molecule": "CC(C)C[C@@H]1NC(=O)[C@H]([C@@H](C)O)NC(=O)[C@H](CC(=O)O)NC(=O)[C@H](CO)NC(=O)[C@H](CCCNC(=N)N)N(C)C(=O)CSC(C)(C)[C@@H](C(=O)N[C@@H](Cc2c[nH]c3ccccc23)C(=O)N[C@H](CCCCN)C(N)=O)NC1=O", "note": "[compound 147]", "values": [{"measurement": "IC50", "setting": "RPMI 8866 cells", "result": "> 1000", "unit": "nM"}]}
{"molecule": "CC(C)C[C@@H]1NC(=O)[C@H]([C@@H](C)O)NC(=O)[C@H](CC(=O)O)NC(=O)[C@H](CO)NC(=O)[C@H](CCCNC(=N)N)N(C)C(=O)c2ccccc2CSC[C@@H](C(=O)N[C@H](Cc2ccccc2)C(=O)N[C@@H](CCC(=O)O)C(=O)N[C@H](CCCCN)C(N)=O)NC1=O", "note": "[compound 186] (HELM PEPTIDE1{[meR].S.D.T.L.C.[dF].E.[dK].[am]}|CHEM1{[O=C(c1ccccc1C[*:2])[*:1]]}$PEPTIDE1,CHEM1,1:R1-1:R1|PEPTIDE1,CHEM1,6:R3-1:R2$$$V2.0)", "values": [{"measurement": "IC50", "setting": "RPMI 8866 cells", "result": "25 to 100", "unit": "nM"}]}
{"molecule": "CC(C)C[C@@H]1NC(=O)[C@H]([C@@H](C)O)NC(=O)[C@H](CC(=O)O)NC(=O)[C@H](CO)NC(=O)[C@H](CCCNC(=N)N)N(C)C(=O)c2ccccc2CSC(C)(C)[C@@H](C(=O)N[C@@H](Cc2ccccc2)C(=O)N[C@@H](Cc2ccc(-c3ccccc3)cc2)C(=O)N[C@H](CCCCN)C(N)=O)NC1=O", "note": "[compound 203] (HELM PEPTIDE1{[meR].S.D.T.L.[Pen].F.[O=C([C@H](Cc1ccc(-c2ccccc2)cc1)N[*:1])[*:2]].[dK].[am]}|CHEM1{[O=C(c1ccccc1C[*:2])[*:1]]}$PEPTIDE1,CHEM1,1:R1-1:R1|PEPTIDE1,CHEM1,6:R3-1:R2$$$V2.0)", "values": [{"measurement": "IC50", "setting": "RPMI 8866 cells", "result": "100 to 1000", "unit": "nM"}]}
{"molecule": "CC(C)C[C@@H]1NC(=O)[C@H]([C@@H](C)O)NC(=O)[C@H](CC(=O)O)NC(=O)[C@H](CO)NC(=O)[C@H](CCCNC(=N)N)N(C)C(=O)c2ccccc2CSC(C)(C)[C@@H](C(=O)N[C@@H](Cc2c[nH]c3ccccc23)C(=O)N[C@H](CCC(=O)O)C(=O)N[C@H](Cc2ccccc2)C(=O)N[C@H](CCCCN)C(N)=O)NC1=O", "note": "[compound 198] (HELM PEPTIDE1{[meR].S.D.T.L.[Pen].W.[dE].[dF].[dK].[am]}|CHEM1{[O=C(c1ccccc1C[*:2])[*:1]]}$PEPTIDE1,CHEM1,1:R1-1:R1|PEPTIDE1,CHEM1,6:R3-1:R2$$$V2.0)", "values": [{"measurement": "IC50", "setting": "RPMI 8866 cells", "result": "< 25", "unit": "nM"}]}
